Measurements reported in patent US20200123127A1, “REMOVAL OF SENESCENCE-ASSOCIATED MACROPHAGES” (EVERON BIOSCIENCES, INC., priority 2016, published 2020).
Entries after “also recorded” stand apart in the source; their conditions may differ. Values belong to the molecule of their own block, whether it stands above or below them.

Assays:
[1] = tested on: p16(Ink4a) expression in SAMs; experiment: p16(Ink4a) promoter-dependent luciferase activity in alginate bead-elicited macrophages (SAMs) ex vivo; assay type: cell-based, mouse; conditions: for Modulation of p16(Ink4a): SAMs: SAMs from NDF alginate beads, dose-response testing; for effect on luciferase activity (M1-inducing agents): IFN-γ 10 ng/mL, Poly(I:C) 10 μg/mL, IFN-α 100 U/mL, 72 hours
Experimental: (§1) FIG. 7. Immunomodulatory regulation of p16(Ink4a) and SAβG in macrophages. Peritoneal lavage cells elicited by alginate-encapsulated SCs from p16^Ink4a/Luc mice were treated ex vivo with immunomodulatory agents for 72 hours. A) p16 promoter-dependent luciferase activity (black bars) and […] activity (via 4-MUG hydrolysis) (gray bars) were measured following treatment with M1- and M2-polarizing stimuli: LPS at 1 ng/mL, IFN-γ at 10 ng/mL, LPS/IFN-γ co-treatment, Poly(I:C) at 10 μg/mL, IFN-α at 100 U/mL, IL-4 at 20 ng/mL, IL-13 at 10 ng/ml, and IL-4/IL-13 co-treatment. Results are shown as the mean±standard deviation for at least 3 independent experiments, with statistical significance between treated compared to non-treated samples depicted. B) Dose-dependent response of JAK1/2 inhibitor Ruxolitinib on luciferase activity in elicited macrophages in the presence (gray bars) or absence (black bars) of IL-4 (10 ng/mL) stimulation. Enzyme activities are expressed as the percent activity relative to non-treated (NT) controls per cell. Statistical significance between IL-4 stimulated and non-stimulated cells at each concentration of ruxolitinib is shown.
FIG. 8. Immunomodulatory regulation of p16(Ink4a) and SAβG in macrophages. Peritoneal lavage cells elicited by alginate-encapsulated SCs from p16^Ink4a/Luc mice were treated ex vivo with immunomodulatory agents for up to 72 hours. (A) mRNA expression of p16(Ink4a) and β-galactosidase (Glb1) in macrophages (relative to B2m expression) with or without LPS stimulation for 72 hours analyzed via qRT-PCR, normalized to non-treated controls. (B) Microphotograph of SAβG-stained adherence-selected macrophages with or without stimulation with LPS (1 ng/mL) for 72 hours (10× objective). (C&D) Kinetics of p16(Ink4a) promoter-dependent luciferase activity per cell with or without LPS stimulation (C) or IL-4 stimulation (D), normalized to activity from non-treated cells at time zero. Results are shown as the mean±standard deviation for at least 3 experiments. Statistical significance with respect to non-treated control at time zero is indicated. (E) Luciferase activity and (3-galactosidase activity (via 4-MUG hydrolysis) from proteose peptone-elicited lavage cells following stimulation with IL-4 (20 ng/mL) for 72 hours, normalized to non-treated controls. (F) Viability following 72 hour dose-response to JAK1/2 inhibitor Ruxolitinib in the presence or absence of IL-4 (10 ng/mL) stimulation, measured by CyQuant Direct DNA-based viability assay. Viability normalized to respective controls lacking Ruxolitinib. (G&H) Dose-response of STAT6 inhibitor AS1517499 against luciferase activity (G) and viability via CyQuant Direct assay (H) following 72 hour treatment in the presence and absence of IL-4 (10 ng/mL). Results normalized to respective controls (with or without IL-4) lacking STAT6 inhibitor. Statistical significance is calculated with respect to the difference between IL-4 stimulated and non-stimulated cells at each concentration of STAT6 inhibitor. (I) Relative luciferase activity per cell following repolarization with M1- and M2-inducing agents. Macrophages were left non-treated (NT) or treated with either LPS (1 ng/ml) or IL-4 (20 ng/ml) for 72 hours (days 1-3), as indicated. For each treatment set, samples were collected at 72 hours (no further treatment; days 4-6=x). Alternatively, cells were washed and placed in fresh medium (−), medium containing LPS (1 ng/mL) and IFN-γ (10 ng/mL), or medium containing IL-4 (20 ng/mL) and IL-13 (10 ng/mL) and incubated for an additional 72 hours prior to sample collection (as indicated for days 4-6). Luciferase activity is expressed as the percent activity per cell relative to non-treated (NT) controls after the first 72 hours.
Luciferase activity of cell lysates was accessed using Bright-Glo™ Luciferase Assay System (Promega; Madison, Wis.) according to manufacturer's instructions with minor modifications. […]

β-galactosidase in SAMs = experiment: β-galactosidase activity (4-MUG hydrolysis) in alginate bead-elicited macrophages (SAMs) ex vivo; assay type: cell-based, mouse; conditions: for effect on β-gal activity (polarizing agents): 72 hours, IFN-γ 10 ng/mL, Poly(I:C) 10 μg/mL, IFN-α 100 U/mL, IL-4 20 ng/mL, IL-13 10 ng/ml; for β-galactosidase production by SAM cells (MUG assay): concentrations of 2.5 to 10 μM
Experimental: as §1
FIG. 13. Effect of TA-4812 on β-gal expression and cell viability. Asenins TA-04812-1, was assayed for its effects on SAM viability, proliferation, and β-gal expression. SAM viability was determined using the resazurin cell viability assay (Res). Cell proliferation was assessed using the CyQuant assay (CyQUANT® Direct Cell proliferation Assay, ThermoFisher Scientific, Waltham, Mass., Catalog # C35011, performed according to manufacturer's instructions) (CyQ). β-gal production was assessed using the MUG assay, a quantitative assay to determine the level of β-gal expression using 4-methylumbelliferylgalactopyranoside (MUG) as substrate.
A fluorogenic substrate for β-galactosidase, 4-MUG (4-Methylumbelliferyl β-D-Galactopyranoside; Sigma-Aldrich), was used for the quantitation of enzymatic β-gal activity from cell lysates, assayed under β-gal^pH6 conditions (i.e. pH 6.0). In a 96-well white microplate, 5 μl of diluted cell lysate was combined with 45 μl of fluorogenic β-gal^pH6 reaction buffer: 1 mM 4-MUG in 100 mM citric acid/sodium phosphate buffer, pH 6.0, containing 2 mM MgCl2, 150 mM NaCl and 0.02% NP-40. Kinetics of product formation at room temperature was determined by measuring fluorescence (Ex/Em 360 nm/440 nm) of the reaction mixture at regular intervals over a 2-hour time period. Reaction endpoints were determined by addition of 150 μl of 700 mM sodium carbonate. The rate of reaction (RFU/min) for each sample was determined, and normalized per μg of protein.
To determine whether macrophage polarization regulates p16(Ink4a) and SAβG expression, peritoneal lavage from p16^Ink4a/Luc mice elicited by our alginate bead model were stimulated with M1- and M2-inducing agents and subsequently, luciferase activity (driven by endogenous p16(Ink4a) promoter) and β-galactosidase activity (assayed via 4-MUG hydrolysis) were measured (FIG. 7A). […] Consistently, LPS decreased the intensity of SAβG staining in treated macrophages. The response of macrophages to LPS was rapid, with a significant decrease in luciferase activity observed within 8 hours (˜40% decrease).
We investigated whether the mechanisms regulating the expression of these traits in macrophages were similar to those found in SCs. Using cells isolated from p16^Ink4a/Luc mice, the dose-dependent response of luciferase and β-galactosidase activities to immunomodulatory stimuli in macrophages was compared to that of proliferating and irradiation-induced senescent adipose-derived mesenchymal stromal cells. […] LPS stimulation of alginate bead model-elicited macrophages reduced luciferase activity, with maximal inhibition (˜85%) observed at concentrations ≥1 ng/mL (FIG. 10A). In addition, β-galactosidase activity was reduced by 40% at 10 ng/mL (FIG. 10B). […]

effect on luciferase activity (M1-inducing agents) [1]: decreased luciferase activity
effect on β-gal activity (polarizing agents) (β-galactosidase in SAMs): without affecting β-gal activity
Molecule: IFN-α

Modulation of p16(Ink4a): SAMs [1]: increase
effect on β-gal activity (polarizing agents) (β-galactosidase in SAMs): without modulating β-gal activity
Molecule: IL-4: M2-polarizing cytokine

luciferase activity, dose-response ([1]; 72 hr, selective to macrophages): dose-dependent decrease
effect on luciferase activity (M1-inducing agents) [1]: decreased luciferase activity
Modulation of p16(Ink4a): SAMs [1]: decrease
effect on β-gal activity (polarizing agents) (β-galactosidase in SAMs): without affecting β-gal activity
β-galactosidase activity, dose-response (β-galactosidase in SAMs; Poly(I:C), 72 hr): no effect
Molecule: Poly(I:C)

effect on luciferase activity (M1-inducing agents) [1]: decreased luciferase activity
effect on β-gal activity (polarizing agents) (β-galactosidase in SAMs): without affecting β-gal activity
B1: IFN-γ: type II interferon, M1-inducing agent (protein, UniProt P01579 24-161, looked up)
Interferon gamma: QDPYVKEAENLKKYFNAGHSDVADNGTLFLGILKNWKEESDRKIMQSQIVSFYFKLFKNFKDDQSIQKSVETIKEDMNVKFFNSNKKKRDDFEKLTNYSVTDLNVQRKAIHELIQVMAELSPAAKTGKRKRSQMLFRG

Second part, the molecule before the results:

Molecule: O=C(NCCCc1cn[nH]c1)c1ccc(-c2ccncc2)c(C#Cc2ccc(F)cc2)c1 [OT-82]
expression of p16 (luciferase) in SAMs ([1]; OT-82, 500 nM): selectively decrease; also recorded: significantly downregulates
Modulation of p16(Ink4a): SAMs [1]: decrease
β-galactosidase expression/activity in SAMs (β-galactosidase in SAMs; OT-82, 500 nM): no effect; also recorded: little effect

Molecule: COc1ccc(C2CC(=NO)c3c(SCc4ccccc4)sc(C(=O)NCc4cccc(F)c4)c3C2)cc1 (stereo not shown) [Example A1.6, 3-(Benzylthio)-N-(3-fluorobenzyl)-4-(hydroxyimino)-6-(4-methoxyphenyl)-4,5,6,7-tetrahydrobenzo[c]thiophene-1-carboxamide]
Modulation of p16(Ink4a): SAMs [1]: decrease
β-galactosidase production by SAM cells (MUG assay) (β-galactosidase in SAMs; listed as TA-4812): reduce β-galactosidase production
β-galactosidase production by SAM cells (MUG assay) (β-galactosidase in SAMs; listed as TA-04812-1): reducing β-gal expression

Molecule: IL-13: M2-polarizing cytokine
Modulation of p16(Ink4a): SAMs [1]: increase
effect on β-gal activity (polarizing agents) (β-galactosidase in SAMs): without modulating β-gal activity
